{"source": "patent US5532229A", "about": "“Topical administration of vitamin D to mammals” (priority 1994, dated 1996)", "key": {"[1]": {"conditions": "application to skin of rats; cited from earlier work"}, "[2]": {"conditions": "oral, in chylomicrons; cited from earlier work"}, "[3]": {"experiment": "Experiment 5: [14C]-vitamin D3 left on skin at application site", "assay_type": "in vivo, Male Wistar rats", "conditions": "for % [14C]-D3 Left on Skin: 2 weeks, 1440 min", "procedure": "This experiment was to compare potential toxic effects of vitamin D3 given for a 2 wk period, at the near-fatal dose of 800 μg per day by gastric tube, or by dermal administration at 800 μg/day or 2600 μg/day. Another goal was find evidence of saturable dermal uptake by including [^14 C]-vitamin D3 to monitor its removal from the skin at the high doses of vitamin D3.\nMale Wistar rats, 190±10 g were obtained and divided into three groups of 7. They were treated for 2 weeks with one the following: 2000 nmol/day of vitamin D3 by gastric tube; 800 μg/day applied to a 2×2 cm patch of skin on the back; 2600 μg/day skin. The day before killing, 66,000 counts per minute of [^14 C]-vitamin D3 was applied along with the dermal dose to permit a determination of uptake from the skin. The rats were killed after two weeks for analysis of serum, urine, kidney, and aorta. The calcium in urine and acid-treated homogenate of kidney was measured by chemical colorimetry; aorta calcium was measured by treating with nitric acid measuring calcium by atomic absorption."}, "[4]": {"experiment": "Experiment 2: uptake of [14C]-vitamin D3 tracer into serum and conversion to [14C]-25(OH)D3", "assay_type": "in vivo, Male Wistar rats", "procedure": "One dose of [carbon-14]-labelled vitamin D3 was given at the time of the last of 14 daily doses of nonradioactive vitamin D3. The graphs show the uptake and metabolism of one [^14 C]-vitamin D3 dose during the course of gastric or dermal supplementation with vitamin D3. The tracer was given in addition to the usual, 8 μg/day vitamin D3 dose, and by the same route. Radioactivity in serum was isolated by chromatography to measure that which elutes as vitamin D3, or as […], Each point is the mean of results from six rats;\nUptake of radioactive vitamin D3 from skin or gut during the longer term treatment with vitamin D3 at 20 nmol/day.\nThe previous experiment 1 involved only one acute dose of a minute, tracer amount of vitamin D3. It remained possible that dermal application could not deliver a larger, more nutritionally relevant amount of vitamin D3. This experiment 2 looked at what happens when vitamin D3 is given during the course of daily treatment with a moderate amount of vitamin D3.\nAfter 30 days, the rats were divided into three groups of 6: one group continued with no supplement, one group was given daily vitamin D3 supplement, 8 μg/day either by gastric tube, the third received the supplement by application to the skin in 50 μL ethanol. Vitamin D3 was given for 3 wk. The day before the rats were killed, the vitamin D3 dose was supplemented with [^14 C]-labelled vitamin D3, 915,000 cpm per rat. Blood was obtained from the tail of each rat at 3 h, 9 h, and by heart puncture when the rats were anesthetized for killing, 24 h after giving the tracer. The blood was extracted and chromatographed to distinguish [^14 C]-vitamin D3 from the [^14 C]-25(OH)D3generated from it. Radioactivity was also measured in the liver, kidney, and adipose tissue. Serum nonradioactive 25(OH)D3 was also measured."}}, "data": [{"smiles": "C[C@H](CCCC(C)(C)O)[C@H]1CC[C@H]2C3=CC=C4CC(O)CC(O)[C@]4(C)[C@H]3CC[C@]12C", "note": "(stereo partly shown) [1,25-dihydroxylated-7-dehydrocholesterol]", "values": [{"measurement": "intestinal calcium transport", "setting": "[1]", "value": "increased"}, {"measurement": "serum calcium", "setting": "[1]", "value": "increased"}]}, {"smiles": "C=C1CC[C@H](O)C/C1=C/C=C1\\CCC[C@]2(C)[C@@H]([C@H](C)/C=C/[C@H](C)C(C)C)CC[C@@H]12", "note": "[vitamin D2]", "values": [{"measurement": "activation into 25-hydroxyvitamin D2", "setting": "[2]", "value": "partially activated into 25-hydroxyvitamin D2 relatively quickly"}]}, {"smiles": "C=C1CC[C@H](O)[14CH2]/C1=C/C=C1\\CCC[C@]2(C)[C@@H]([C@H](C)CCCC(C)C)CC[C@@H]12", "note": "[[^14 C]-vitamin D3]", "values": [{"measurement": "% [14C]-D3 Left on Skin", "setting": "[3]; dermal 800 μg/day", "value": 47.8, "unit": "%"}, {"measurement": "% [14C]-D3 Left on Skin", "setting": "[3]; dermal 2600 μg/day", "value": 65.6, "unit": "%"}, {"measurement": "proportion of administered vitamin D3 left in the skin, effect of dose", "setting": "[3]; dermal 800 vs 2600 μg/day", "value": "only marginally affected by the dose"}, {"measurement": "time until [14C]-25(OH)D3 evident in serum", "setting": "[4]; dermal administration, after dosing", "value": "≥ 24", "unit": "h"}, {"measurement": "[14C]-25(OH)D3 detection in serum", "setting": "[4]; oral dosing", "value": "detected in every sample"}]}, {"smiles": "C=C1/C(=C\\C=C2/CCC[C@]3(C)[C@@H]([C@H](C)CCCC(C)(C)O)CC[C@@H]23)C[C@@H](O)C[C@@H]1O", "note": "[1,25(OH)2 D3]", "values": [{"measurement": "intestinal calcium transport", "setting": "[1]", "value": "increased"}, {"measurement": "serum calcium", "setting": "[1]", "value": "increased"}]}]}
